Among the targets are Histone deacetylase 2 (Homo sapiens, UniProt Q92769); Histone deacetylase 1 (Homo sapiens, UniProt Q13547); Histone deacetylase 3 (Homo sapiens, UniProt O15379).
Assay in all cases: Conditioned place preference (CPP) assay

For 1 compound, IC50 results are on record in BindingDB's records for patent US20240252496 (The Children’s Medical Center, 2024).

Chain of Histone deacetylase 2 (Q92769 whole entry): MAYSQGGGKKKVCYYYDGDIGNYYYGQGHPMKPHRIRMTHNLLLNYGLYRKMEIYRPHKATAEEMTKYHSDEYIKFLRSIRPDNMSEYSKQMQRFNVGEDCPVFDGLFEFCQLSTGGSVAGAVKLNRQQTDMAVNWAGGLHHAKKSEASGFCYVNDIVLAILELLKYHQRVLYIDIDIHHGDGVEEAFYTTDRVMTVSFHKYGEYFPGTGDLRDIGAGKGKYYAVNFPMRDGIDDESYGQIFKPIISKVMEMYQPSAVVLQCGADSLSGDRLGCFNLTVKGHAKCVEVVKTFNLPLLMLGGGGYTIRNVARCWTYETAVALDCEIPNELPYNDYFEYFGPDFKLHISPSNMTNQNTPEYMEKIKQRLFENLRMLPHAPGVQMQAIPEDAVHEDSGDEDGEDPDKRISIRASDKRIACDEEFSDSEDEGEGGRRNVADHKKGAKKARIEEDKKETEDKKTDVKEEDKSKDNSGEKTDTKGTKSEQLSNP
Chain of Histone deacetylase 3 (O15379 whole entry): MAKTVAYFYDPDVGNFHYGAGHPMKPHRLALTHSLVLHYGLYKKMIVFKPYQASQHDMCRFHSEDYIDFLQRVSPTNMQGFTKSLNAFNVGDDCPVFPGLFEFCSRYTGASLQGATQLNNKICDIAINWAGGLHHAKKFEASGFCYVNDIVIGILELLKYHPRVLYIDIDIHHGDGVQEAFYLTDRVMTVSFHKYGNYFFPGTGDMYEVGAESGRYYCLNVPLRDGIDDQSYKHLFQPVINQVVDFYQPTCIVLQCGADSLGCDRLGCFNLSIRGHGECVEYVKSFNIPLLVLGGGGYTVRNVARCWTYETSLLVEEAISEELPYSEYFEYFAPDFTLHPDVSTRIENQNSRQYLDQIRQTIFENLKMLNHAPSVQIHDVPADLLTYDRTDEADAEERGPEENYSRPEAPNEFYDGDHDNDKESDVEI
Chain of Histone deacetylase 1 (Q13547 whole entry): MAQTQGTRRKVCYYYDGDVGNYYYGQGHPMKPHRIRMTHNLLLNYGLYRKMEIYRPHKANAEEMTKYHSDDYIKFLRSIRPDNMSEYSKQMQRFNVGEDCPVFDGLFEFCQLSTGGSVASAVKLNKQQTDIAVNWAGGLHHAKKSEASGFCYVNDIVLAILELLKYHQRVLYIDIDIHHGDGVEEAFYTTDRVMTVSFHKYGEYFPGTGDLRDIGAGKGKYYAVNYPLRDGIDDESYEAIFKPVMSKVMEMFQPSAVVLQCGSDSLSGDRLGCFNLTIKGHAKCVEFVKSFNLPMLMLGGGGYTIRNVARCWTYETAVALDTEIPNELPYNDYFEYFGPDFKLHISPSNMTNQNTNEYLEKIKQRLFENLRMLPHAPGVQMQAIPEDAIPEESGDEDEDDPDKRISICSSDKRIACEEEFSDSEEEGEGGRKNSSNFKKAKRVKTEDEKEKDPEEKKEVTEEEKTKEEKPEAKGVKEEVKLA

As usually defined, the IC50 is the concentration that inhibits the measured activity by half. Lower therefore signals inhibition by little substance. With `COC(c1ccc(F)cc1)(c1ccc(F)cc1)c1ccc(C(=O)NCCCCCCC(=O)NO)cc1` [US20240252496, Example ACY-257], the IC50 on Histone deacetylase 2 was determined as 530 nM; against Histone deacetylase 1, 268 nM; against Histone deacetylase 3, 850 nM.
